Measured values published in patent US11685746B2, “Heteroaryl compounds for treating Huntington's disease” (PTC THERAPEUTICS, INC., priority 2018, dated 2023).

Test system: Endogenous Huntingtin Protein
Test: Endogenous Huntingtin Protein Assay (MSD plates, MW1 or MAB2166 capture antibody)
Type: cell-based
Conditions: Table 1
Procedure: Endogenous Huntingtin Protein Assay
Meso Scale Discovery (MSD) 96-well or 384-well plates were coated overnight at 4° C. with MW1 (expanded polyglutamine) or MAB2166 monoclonal antibody (for capture) at a concentration of 1 μg/mL in PBS (30 μL per well). Plates were then washed three times with 300 μL wash buffer (0.05% Tween-20 in PBS) and blocked (100 μL blocking buffer; 5% BSA in PBS) for 4-5 hours at room temperature with rotational shaking and then washed three times with wash buffer.
Samples (25 μL) were transferred to the antibody-coated MSD plate and incubated overnight at 4° C. After removal of the lysates, the plate was washed three times with wash buffer, and 25 μL of #5656S (Cell signaling; rabbit monoclonal) secondary antibody (diluted to 0.25 μg/mL in 0.05% Tween-20 in blocking buffer) was added to each well and incubated with shaking for 1 Hour at room temperature. Following incubation with the secondary antibody, the wells were rinsed with wash buffer after which 25 μL of goat anti-rabbit SULFO TAG secondary detection antibody (required aspect of the MSD system) (diluted to 0.25 μg/mL in 0.05% Tween-20 in blocking buffer) was added to each well and incubated with shaking for 1 hour at room temperature. After rinsing three times with wash buffer, 150 μL of read buffer T with surfactant (MSD) were added to each empty well, and the plate was imaged on a SI 6000 imager (MSD) according to manufacturers' instructions provided for 96- or 384-well plates.

Row | SMILES | IC50 [nM]
1 | COc1cc(-c2cnc(-c3nc4sc(N(C)[C@H]5C[C@]6(C)CC[C@](C)(C5)N6)nc4s3)cn2)ncn1 [Compound 65, N-[(1R,3s,5S)-1,5-dimethyl-8-azabicyclo[3.2.1]octan-3-yl]-5-[5-(6-methoxypyrimidin-4-yl)pyrazin-2-yl]-N-methyl[1,3]thiazolo[5,4-d][1,3]thiazol-2-amine] | 100 to 500
2 | C[C@H]1C[C@H](N(C)c2nc3sc(-c4cnc(-n5ccnc5)cn4)nc3s2)CCN1 [Compound 66, 5-[5-(1H-imidazol-1-yl)pyrazin-2-yl]-N-methyl-N-[(2S,4R)-2-methylpiperidin-4-yl][1,3]thiazolo[5,4-d][1,3]thiazol-2-amine] | ≤ 100
3 | Cc1nccn1-c1cnc(-c2nc3sc(N(C)[C@H]4C[C@]5(C)CC[C@](C)(C4)N5)nc3s2)cn1 [Compound 67, N-[(1R,3s,5S)-1,5-dimethyl-8-azabicyclo[3.2.1]octan-3-yl]-N-methyl-5-[5-(2-methyl-1H-imidazol-1-yl)pyrazin-2-yl][1,3]thiazolo[5,4-d][1,3]thiazol-2-amine] | ≤ 100
4 | C[C@@H]1C[C@@H](Oc2nc3sc(-c4ccc(-c5cn[nH]c5)c5nc[nH]c45)nc3s2)CCN1 [Compound 68, 7-(5-{[(2R,4S)-2-methylpiperidin-4-yl]oxy}[1,3]thiazolo[5,4-d][1,3]thiazol-2-yl)-4-(1H-pyrazol-4-yl)-1H-benzimidazole] | ≤ 100
5 | COc1cc(-c2cnc(-c3nc4sc(N(C)[C@H]5C[C@]6(C)CC[C@](C)(C5)N6)nc4s3)cn2)ccn1 [Compound 69, N-[(1R,3s,5S)-1,5-dimethyl-8-azabicyclo[3.2.1]octan-3-yl]-5-[5-(2-methoxypyridin-4-yl)pyrazin-2-yl]-N-methyl[1,3]thiazolo[5,4-d][1,3]thiazol-2-amine] | 100 to 500
6 | CN(c1nc2sc(-c3cnc(-n4cncn4)cn3)nc2s1)[C@H]1C[C@]2(C)CC[C@](C)(C1)N2 [Compound 70, N-[(1R,3s,5S)-1,5-dimethyl-8-azabicyclo[3.2.1]octan-3-yl]-N-methyl-5-[5-(1H-1,2,4-triazol-1-yl)pyrazin-2-yl][1,3]thiazolo[5,4-d][1,3]thiazol-2-amine] | ≤ 100
7 | Cc1n[nH]c(C)c1-c1cnc(-c2nc3sc(N(C)[C@H]4C[C@]5(C)CC[C@](C)(C4)N5)nc3s2)cn1 [Compound 73, N-[(1R,3s,5S)-1,5-dimethyl-8-azabicyclo[3.2.1]octan-3-yl]-5-[5-(3,5-dimethyl-1H-pyrazol-4-yl)pyrazin-2-yl]-N-methyl[1,3]thiazolo[5,4-d][1,3]thiazol-2-amine] | 1000 to 3000
8 | C[C@@H]1C[C@@H](Oc2nc3sc(-c4ncc(-c5cn[nH]c5)c5cn[nH]c45)nc3s2)CCN1 [Compound 74, 7-(5-{[(2R,4S)-2-methylpiperidin-4-yl]oxy}[1,3]thiazolo[5,4-d][1,3]thiazol-2-yl)-4-(1H-pyrazol-4-yl)-1H-pyrazolo[3,4-c]pyridine] | ≤ 100
9 | C[C@H]1C[C@H](N(C)c2nc3sc(-c4ncc(-c5cn[nH]c5)c5cc[nH]c45)nc3s2)CCN1 [Compound 75, N-methyl-N-[(2S,4R)-2-methylpiperidin-4-yl]-5-[4-(1H-pyrazol-4-yl)-1H-pyrrolo[2,3-c]pyridin-7-yl][1,3]thiazolo[5,4-d][1,3]thiazol-2-amine] | ≤ 100
10 | C[C@@H]1C[C@@H](Oc2nc3sc(-c4ncc(-c5cn[nH]c5)c5cc[nH]c45)nc3s2)CCN1 [Compound 76, 7-(5-{[(2R,4S)-2-methylpiperidin-4-yl]oxy}[1,3]thiazolo[5,4-d][1,3]thiazol-2-yl)-4-(1H-pyrazol-4-yl)-1H-pyrrolo[2,3-c]pyridine] | ≤ 100
11 | CC1(C)CC(Oc2nc3sc(-c4ncc(-c5cn[nH]c5)c5cc[nH]c45)nc3s2)CCN1 (centres unmarked) [Compound 77, 7-{5-[(2,2-dimethylpiperidin-4-yl)oxy][1,3]thiazolo[5,4-d][1,3]thiazol-2-yl}-4-(1H-pyrazol-4-yl)-1H-pyrrolo[2,3-c]pyridine] | ≤ 100
